Tested on: mammary adenocarcinoma cells
Assay: Dark Agouti Mammary Adenocarcinoma (DAMA) tumour-bearing model: tumour growth and MTX efficacy
Assay type: in vivo, rat
Conditions: MTX treated rats
Experimental: Tumour-bearing studies were conducted in accordance with ethical guidelines approved by the University of Adelaide Animal Ethics committee in accordance with the National Health and Medical Research Committee's Code for the care and use of animals for scientific research. All experiments were performed with N=8 rats per group.
The rats were individually-housed in conventional, open top cages under 12 h light/dark cycles with ad libitum access to autoclaved food and sterile water. Sawdust bedding was provided in all cases with enrichment (crinkle paper for tumour-naïve model or toilet rolls for tumour-bearing model). All cages were randomly arranged across racks to prevent potential bias and dampen variation.
The Dark Agouti Mammary Adenocarcinoma (DAMA) model was used to assess the effect of a composition comprising hydrolysed whey proteins and MCTs on tumor growth. Following acclimatisation (1 week with AIN93G control diet), female DA rats weighing 150-170 g were given ad libitum access to the test or control diet (table 1) for two weeks prior to methotrexate (MTX) treatment (day-14). […] Tumours were measured daily using digital calipers to determine their volume (cm^3). Tumour burden was calculated as tumour length width*depth (volume) and expressed as relative to body weight (% BW, cm^3/g). […]

In the case of CN(Cc1cnc2nc(N)nc(N)c2n1)c1ccc(C(=O)N[C@@H](CCC(=O)O)C(=O)O)cc1 [MTX, methotrexate], the “tumour burden at necropsy (FIG. 1B volume, FIG. 1C weight, relative to body weight)” value is reported as “significantly decreased to (near) zero”.

From patent US20250017973A1, “Nutritional composition for cancer” (N.V. Nutricia, priority 2022, published 2025)
